# Marks after values point to notes of the source that are not given here.
# Columns and labels:
# mice = assay: Haloperidol-induced catalepsy model; format: in vivo, mouse; settings: for Haloperidol-induced catalepsy (significantly reduced): FIG. 17 (24 hours after administration)
# Method: The potential anti-akinetic effect of psilocybin in mice was investigated. Psilocybin (1 mg/kg, 3 mg/kg, or 10 mg/kg), chlorstyril caffeine (CSC), or vehicle was administered one hour, 24 hours, or one week prior to administration of haloperidol.
# After administration of haloperidol, a catalepsy test was administered to each mouse. During the test, the forelimbs of the mice were placed on a catalepsy apparatus. The latency time was defined as the time necessary for the mouse to put the forelimbs on the table. The cut off time was set as 3 minutes. Catalepsy was evaluated every 45 minutes for 270 minutes after the Haloperidol injection.
# male C57BL/6 mice = assay: Chronic constriction injury (CCI) model of neuropathic pain, von Frey paw withdrawal threshold; format: in vivo, mouse
# Method: To determine whether psilocybin may alleviate chronic neuropathic pain, various doses of psilocybin were tested in a mouse model of chronic constriction injury (CCI).
# Male C57BL/6 mice (age 6-7 weeks, source: Charles River UK) were housed in standard caging in groups of 2-4, with free access to food (5CR4, Purina) and water (except during placement in the test box) on a 12/12 light/dark cycle.
# All animals underwent behavioral testing of mechanical allodynia on three consecutive days (Day −2, Day−1 and Day 0) prior to surgery in order to determine the baseline withdrawal thresholds. Briefly, Static mechanical (tactile) allodynia was assessed by measurement of withdrawal threshold using calibrated (force; g) von-Frey monofilaments (Touch-Test Sensory Evaluator; Scientific Marketing Associates) applied to the plantar surface of the hind-paw. The animals were placed in individual Perspex boxes on a raised metal mesh for 30-40 minutes before the test. A series of graduated von Frey hairs (0.07, 0.16, 0.4, 0.6 and 1 g) was applied in sequence with a protocol of 1 second on 1 second off, repeated 10 times. Each hair was applied perpendicularly to the center of the ventral surface of the paw until it slightly bends. The force applied to the hind-paw of the animal to induce 5 responses out of 10 trials was recorded as paw withdrawal threshold (PWT). Three baseline paw withdrawal thresholds were taken on ipsilateral paws. The mean of the last two readings used as the baseline withdrawal threshold.
# Subsequently, surgery was performed under anesthesia (Isoflurane mixed with oxygen, 3:1, 2 L/min) to tie three loose ligatures of prolene (7-0, Ethicon) around the sciatic nerve, with 1 mm spacing between each. The nerve was then returned below the muscle layer and the wound closed using absorbable sutures (Vicryl).
# Following recovery from surgery, Von Frey assessment of mechanical allodynia was taken on days 19 and 22. Animals were then ranked and randomized (based on a Latin square design) to treatment groups according to the percentage change (compared to pre-surgery baseline) of the mean mechanical withdrawal threshold observed on days 19 and 22. Only those animals showing a PWT percentage change of >50% from pre-surgery baseline were included in the study.
# On day 23, the animals were dosed with psilocybin (1, 3 or 10 mg/kg by intraperitoneal injection) or vehicle (10 mL/kg by intraperitoneal injection). Nerve pain medication Pregabalin (15 mg/kg administered orally) was also used as a positive control. Allodynia was then assessed at 0.5, 4 and 24 hours post-treatment timepoint (PTT).
compound,measurement,setting,value
"CN(C)CCc1c[nH]c2cccc(OP(=O)(O)O)c12 [Psilocybin, psilocybin]",Haloperidol-induced catalepsy (significantly reduced),mice; 1 mg/kg,90 s
same,Start of positive effect on catalepsy after haloperidol,"mice; 1 mg/kg, FIG. 18 (24 hours after administration)",135 min
same,Time after haloperidol injection of decrease in descent latency,"mice; 1 mg/kg, one hour prior to the test",270 min
same,Time after haloperidol from which descent latency is significantly decreased,"mice; 3 mg/kg, 1 week prior to the test",≥ 224 min
same,Haloperidol-induced catalepsy (significantly reduced),mice; 3 mg/kg,60 s
same,"Start of reduction in descent latency after haloperidol, lasting to 270 minutes","mice; 3 mg/kg, FIG. 18 (24 hours after administration)",45 min
same,Time after haloperidol injection from which descent latency is significantly decreased,"mice; 3 mg/kg, one hour prior to the test",≥ 225 min
same,Haloperidol-induced catalepsy (significantly reduced),mice; 10 mg/kg,75 s
same,Start of positive effect on catalepsy after haloperidol,"mice; 10 mg/kg, FIG. 18 (24 hours after administration)",90 min
same,Time after haloperidol injection from which descent latency is significantly decreased,"mice; 10 mg/kg, one hour prior to the test",≥ 180 min
same,"Force-induced paw withdrawal, mean","male C57BL/6 mice; 1 mg/kg IP group, D19-22 Neuropathic baseline (before dosing)",0.16 g
same,"Force-induced paw withdrawal, mean","male C57BL/6 mice; 1 mg/kg IP group, D-2 D-1 Baseline (before surgery and dosing)",0.72 g
same,"Force-induced paw withdrawal, mean","male C57BL/6 mice; 1 mg/kg IP, D23 0.5 hours PTT",0.16 g
same,"Force-induced paw withdrawal, mean","male C57BL/6 mice; 1 mg/kg IP, D23 4 hours PTT",0.16 g
same,"Force-induced paw withdrawal, mean","male C57BL/6 mice; 1 mg/kg IP, D24 24 hours PTT",0.15 g
same,"Force-induced paw withdrawal, mean","male C57BL/6 mice; 3 mg/kg IP group, D19-22 Neuropathic baseline (before dosing)",0.16 g
same,"Force-induced paw withdrawal, mean","male C57BL/6 mice; 3 mg/kg IP group, D-2 D-1 Baseline (before surgery and dosing)",0.68 g
same,"Force-induced paw withdrawal, mean","male C57BL/6 mice; 3 mg/kg IP, D23 0.5 hours PTT",0.22 g
same,"Force-induced paw withdrawal, mean","male C57BL/6 mice; 3 mg/kg IP, D23 4 hours PTT",0.15 g
same,"Force-induced paw withdrawal, mean","male C57BL/6 mice; 3 mg/kg IP, D24 24 hours PTT",0.25 g
same,"Force-induced paw withdrawal, mean","male C57BL/6 mice; 10 mg/kg IP group, D19-22 Neuropathic baseline (before dosing)",0.17 g
same,"Force-induced paw withdrawal, mean","male C57BL/6 mice; 10 mg/kg IP group, D-2 D-1 Baseline (before surgery and dosing)",0.79 g
same,"Force-induced paw withdrawal, mean","male C57BL/6 mice; 10 mg/kg IP, D23 0.5 hours PTT",0.38* g
same,"Force-induced paw withdrawal, mean","male C57BL/6 mice; 10 mg/kg IP, D23 4 hours PTT",0.51* g
same,"Force-induced paw withdrawal, mean","male C57BL/6 mice; 10 mg/kg IP, D24 24 hours PTT",0.25 g
